For test [1], the target named is T1, Bifunctional epoxide hydrolase 2 (Homo sapiens, UniProt P34913).
T1 sequence (P34913 whole entry): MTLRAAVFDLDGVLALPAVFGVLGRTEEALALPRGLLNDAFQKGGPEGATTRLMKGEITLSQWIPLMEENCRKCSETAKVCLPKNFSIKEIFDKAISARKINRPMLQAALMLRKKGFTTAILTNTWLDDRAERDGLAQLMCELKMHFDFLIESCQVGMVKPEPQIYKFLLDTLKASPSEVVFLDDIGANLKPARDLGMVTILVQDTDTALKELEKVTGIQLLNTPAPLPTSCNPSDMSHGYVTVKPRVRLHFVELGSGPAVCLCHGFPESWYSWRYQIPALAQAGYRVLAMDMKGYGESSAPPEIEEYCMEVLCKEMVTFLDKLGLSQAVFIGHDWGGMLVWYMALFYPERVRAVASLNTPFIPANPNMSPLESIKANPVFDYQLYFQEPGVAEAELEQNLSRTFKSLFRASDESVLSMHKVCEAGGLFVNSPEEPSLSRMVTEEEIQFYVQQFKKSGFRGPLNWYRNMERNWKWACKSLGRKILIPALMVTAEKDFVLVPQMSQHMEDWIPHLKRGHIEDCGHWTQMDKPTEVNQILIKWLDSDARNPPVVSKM
The test can be described thus: (§1) Inhibition of C-terminal domain of human sEH-H assessed as reduction in fluorescent naphthalene aldehyde formation using PHOME as substrate preincubated with enzyme for 30 mins followed by substrate addition and measured every minute for 45 mins by fluorescence based analysis.

The target of test [2] is T2, Bifunctional epoxide hydrolase 2 (Homo sapiens) (UniProt P34913).
T2 sequence (whole entry): T1 sequence (P34913 whole entry)
Described as §1. As to conditions: time 75.0 min, DDE = dose-dependent effect.

Test [3] addresses T2, Bifunctional epoxide hydrolase 2 (Homo sapiens). The experiment in a line: Binding affinity to human full length sEH (1 to 555 residues) expressed in doxycycline-induced HEK293 cells at 300 nM incubated for 5 hrs by Hoechst 33342 staining based fluorescence microscopy. It is filed as cell-based.
For test [4], the target named is T3, Bifunctional epoxide hydrolase 2 (Mus musculus) (UniProt P34914).
T3 sequence (whole entry): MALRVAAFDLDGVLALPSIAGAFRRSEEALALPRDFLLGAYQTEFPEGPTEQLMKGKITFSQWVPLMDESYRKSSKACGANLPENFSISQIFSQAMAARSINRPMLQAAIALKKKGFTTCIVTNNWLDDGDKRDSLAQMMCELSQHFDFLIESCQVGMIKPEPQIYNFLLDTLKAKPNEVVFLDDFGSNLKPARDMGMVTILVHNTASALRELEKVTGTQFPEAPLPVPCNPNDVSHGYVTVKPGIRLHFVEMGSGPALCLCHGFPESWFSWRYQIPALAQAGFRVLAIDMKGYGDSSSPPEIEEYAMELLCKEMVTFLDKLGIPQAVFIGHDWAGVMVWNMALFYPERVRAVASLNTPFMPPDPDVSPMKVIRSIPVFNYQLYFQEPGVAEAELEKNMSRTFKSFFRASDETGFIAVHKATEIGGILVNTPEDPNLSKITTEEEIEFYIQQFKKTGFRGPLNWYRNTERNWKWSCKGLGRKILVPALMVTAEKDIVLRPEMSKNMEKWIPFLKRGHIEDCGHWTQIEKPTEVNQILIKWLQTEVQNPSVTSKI
The experiment in a line: (§2) Inhibition of C-terminal domain of mouse sEH-H assessed as reduction in fluorescent naphthalene aldehyde formation using PHOME as substrate preincubated with enzyme for 30 mins followed by substrate addition and measured every minute for 45 mins by fluorescence based analysis. As to conditions: time 75.0 min, DDE = dose-dependent effect.

The target of test [5] is T4, Bifunctional epoxide hydrolase 2 (Mus musculus, UniProt P34914).
T4 sequence (P34914 whole entry): T3 sequence (whole entry)
The test is described as §2.

The target in test [6] is T1, Bifunctional epoxide hydrolase 2. The test can be described thus: Binding affinity to NanoLuc-fused human sEH ( 1 to 555 residues) expressed in HEK293T cells incubated for 5 hrs by NanoBRET analysis. It is filed as cell-based.
Test [7] concerns the target T3, Bifunctional epoxide hydrolase 2 (Mus musculus). The experiment in a line: Binding affinity to sEH in C57BL/6J mouse astrocytes at 10 uM incubated for 5 hrs by DAPI staining based immunocytochemistry. It is filed as cell-based. Conditions: Astrocyte.
Test [8] deals with T2, Bifunctional epoxide hydrolase 2 (Homo sapiens). The test can be described thus: Binding affinity to C-terminal domain of human sEH-H at 20 nM incubated for 1 hr by fluorescence polarization assay.
Test [9] addresses T1, Bifunctional epoxide hydrolase 2. The test can be described thus: Displacement of (1R,3S)-N-(4-methoxy-2-(trifluoromethyl)benzyl)-3-((7-nitrobenzo[c][1,2,5]-oxadiazol-4-yl)amino)cyclohexane-1-carboxamide from NanoLuc-fused human sEH ( 1 to 555 residues) expressed in HEK293T cells incubated for 5 hrs by NanoBRET analysis. Conditions: read-out: Ki(app). It is filed as cell-based.

Test [10] shares this target. The test can be described thus: Inhibition of human sEH BacMam transduced HEK293 cells assessed as reduction in 14,15-DHET formation using 14,15-EET as substrate preincubated for 30 mins followed by susbtrate addition and measured after 90 mins by fluorescence polarization assay. It is filed as cell-based.

The source made the active and inactive calls. No cut-off for these calls is given here.

As for `COc1ccc(CNC(=O)[C@@H]2CCC[C@H](Nc3ccc([N+](=O)[O-])c4nonc34)C2)c(C(F)(F)F)c1`, the IC50 came out at 0.00143 µM in test [1] and 0.00771 µM in test [5]. The inhibition entry in test [2] and in test [4] was “Dde” throughout. In addition, the result in test [3], in test [7] and in test [8] was Active. Also, the Kd in [6] was 0.006 µM.
On to `CNc1nc(C)nc(N[C@H]2CCC[C@@H](C(=O)NCc3ccc(C#N)cc3C(F)(F)F)C2)n1` [GSK2256294], for which, in [9], the Ki was determined as 0.024 µM.
For the molecule `O=C(NCc1ccc(NS(=O)(=O)C2CC2)cc1C(F)(F)F)c1ccc2[nH]ccc2c1`, the IC50 in test [1] amounted to 0.0294 µM. In addition, in [9], the Ki worked out at 0.583 µM.
Turning to `O=C(O)CCCCCCCCCCNC(=O)NC12CC3CC(CC(C3)C1)C2`, the IC50 in [10] turned out to be 0.034 µM; in test [1], 0.0026 µM. Also, the Ki in test [9] worked out at 0.016 µM.
